Where “and” joins values, the source holds several entries; their conditions need not be identical. Equal entries are not always repeated. Where two headings read alike, the source gives them in different places.
Assays:
Type in all cases: binding
[1] = target: T1, hMcl-1 (Homo sapiens, UniProt Q07820); assay: DELFIA displacement assay, biotinylated BH3 peptide from hMcl-1; conditions: for IC50: hMcl-1 16 nM, room temperature
T1 construct: His tag (N); made in house; host or cells: E. coli BL21 (DE3) gold pLysS
T1 sequence (Q07820 172-323): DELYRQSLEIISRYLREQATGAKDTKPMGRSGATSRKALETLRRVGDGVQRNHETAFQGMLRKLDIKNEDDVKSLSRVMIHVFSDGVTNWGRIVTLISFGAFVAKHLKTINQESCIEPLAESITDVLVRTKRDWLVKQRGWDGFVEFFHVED
Procedure: (§1) Perturbations observed by ligand binding can be measured and qualitatively used to roughly rank order compound binding, or compound mixtures in this case, in the initial screening campaign (Figure 2). As a control, we used a potent hMcl-1 binding ligand A1210477[37] (Figure 2A).
(§2) Each well of 96-well streptavidin-coated plates (PerkinElmer) was incubated with 100 μL of a 600 ng/mL biotinylated-BH3 peptide of sequence biotin-amino-hexanoic acid-[…]-NH2 for 2 h and washed 3 times with a wash solution (PerkinElmer). Subsequently, a mixture containing 11 μL of protein and a serial dilution of the test compounds as well as 89 μL of an Eu-N1-labeled anti-6x-His antibody (PerkinElmer) was added to each well and incubated for 2 h. Plates were then washed 3 times, and 200 μL of enhancement solution (PerkinElmer) was added to each well. After a 10 min incubation, fluorescence measurements were taken with a Victor X5 microplate reader with the excitation and emission wavelengths of 340 and 615, respectively. All the incubations were performed at room temperature. The final protein concentrations used for hBfl-1 and hMcl-1 were 15 and 16 nM, respectively and the final anti-6x-His antibody used was 22.2 ng/well. Fluorescence readings were normalized to those of 1% DMSO-treated wells and reported as % inhibition. Prism 9 (GraphPad) was used to calculate IC50 values.

[2] = target: T1, hMcl-1; assay: Isothermal titration calorimetry
Procedure: Isothermal titration calorimetry measurements were performed using an Affinity ITC autosampler from TA Instruments (New Castle, DE). The titrations were performed in a direct fashion by titrating the ligand solution into the protein. All the measurements were performed at 25 °C dissolving the agents in 50 mM phosphate at pH 7.5, 150 mM NaCl, and a final DMSO concentration of 1%. To test compound 12, the syringe was filled with a 2 mM solution of compound 12, and 20 injections of 5 μL each were performed into the cell containing a 100 μM solution of the protein. The injections were made at 200 s intervals with a stirring speed of 75 rpm. To test compound 50, the syringe was filled with a 500 μM solution of compound 50, and 20 injections of 5 μL each were performed into the cell containing a 50 μM solution of the protein. The injections were made at 200 s intervals with a stirring speed of 75 rpm. All the solutions were kept in the autosampler at 4 °C. The analysis of the thermodynamics signatures and for dissociation constant determination was performed by NanoAnalyze software (TA Instruments, New Castle, DE) and subsequently exported into Microsoft Excel.

[3] = target: T1, hMcl-1; assay: 1D 1H NMR aliphatic region chemical shift perturbation / titration; conditions: for CSP1 (Table S4) / CSP1 (Table S3): total shift of the two peaks overlapping at -0.616 ppm
From the text: as §1
(§3) NMR spectra were acquired on a Bruker Avance III 700 MHz spectrometer equipped with a TCI cryoprobe. All NMR data were processed and analyzed using TopSpin 4.1.0 (Bruker, Billerica, MA). For the mixture screening, each of the 96 mixtures was dissolved into a 5 mm NMR tube to a final concentration of 2 mM in the presence of 20 μM hMcl-1 in a buffer containing 40 mM Tris pH = 7.5, 150 mM NaCl, and 1 mM DTT. For each mixture, 1D ^1H-aliph experiments were acquired. For ranking purposes, a total chemical shift perturbation generated by each mixture to the five peaks around 0 ppm in the 1D ^1H-aliph spectra of hMcl-1 was considered (Figure 4). 2D-[^13C,^1H]-HSQC experiments were acquired with 20 μM protein using 32 scans with 2048 and 256 complex data points in the ^1H and ^13C dimensions, respectively, at 298 K.

[4] = target: T2, hBfl-1 (Homo sapiens, UniProt Q16548); assay: DELFIA displacement assay, hBfl-1; conditions: hBfl-1 15 nM
T2 sequence (Q16548 1-175): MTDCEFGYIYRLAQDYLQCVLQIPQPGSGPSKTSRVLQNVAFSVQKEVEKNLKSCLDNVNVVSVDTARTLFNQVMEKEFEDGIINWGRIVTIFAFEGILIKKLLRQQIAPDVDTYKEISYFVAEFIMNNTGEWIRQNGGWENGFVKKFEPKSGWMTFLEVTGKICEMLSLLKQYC
Procedure: as §2

[5] = target: T3, 13Cε-Met-labeled hMcl-1 (Homo sapiens, UniProt Q07820); assay: 2D [13C,1H] correlation spectra with 13Cε-Met-labeled hMcl-1
T3 construct: His tag (N); made in house; host or cells: E. coli BL21 (DE3) gold pLysS
T3 sequence (Q07820 172-323): as the sequence (Q07820 172-323) above
From the text: To further corroborate the possible binding location and pose of the agent, we collected NMR experiments with a selectively ^13C^ε-Met-labeled hMcl-1.[1] In the sequence of hMcl-1, there are 4 Met residues, where two located outside the biding pocket, namely, Met 170 and Met 199, while two Met residues are directly present in the BH3 binding pocket, namely, Met 231 and Met 250 (Figure 8). […] Smaller yet still relatively large perturbations were also observed in the resonances of Met 250, located also across the indole in our model but not as directly juxtaposed as Met 231 with our ligand (Figure 8). […] This piece of data supports the location of the binding of our agent and possibly also corroborates its predicted binding pose.
as §3, with “2D-[^13C,^1H]-HSQC experiments were acquired with 20 μM protein using 32 scans with 2048 and 256 complex data points in the ^1H and ^13C dimensions, respectively, at 298 K.” left out

[6] = 25 °C, pH 7.5, 1% DMSO, read-out: Kd by isothermal titration calorimetry
[7] = supplementary CSV, values match ITC, read-out: Kd (uM) (n=2)

Question: `Cc1nn(C)c(COc2ccc(N3CCN(S(=O)(=O)N(C)C)CC3)cc2)c1-c1cccc2c(CCCOc3cccc4ccccc34)c(C(=O)O)n(CCN3CCOCC3)c12` [Compound A1210477] was tested. Which LE ([1]; from DELFIA IC50) did it give?
Answer: The LE was ~0.17.

Question: And the IC50 ([1]; read-out: IC50, displacement of biotinylated BH3 peptide from hMcl-1 (DELFIA))?
Answer: Its IC50 is 0.014 µM.

Question: With `COc1ccc(C(C)C)cc1S(=O)(=O)NC(CC(=O)O)C(=O)N1C(C(=O)NC(Cc2c[nH]c3ccccc23)C(N)=O)CC2CCCCC21` (stereo not shown) [Compound 60] as the compound, how does the Kd [2, 6] read?
Answer: The Kd was 2.84 ± 0.67 µM.

Question: What about the Kd [2, 7] of the same compound?
Answer: Its Kd is 2.84 ± 0.7 µM.

Question: Which IC50 ([1]; read-out: IC50, displacement of biotinylated-BIM peptide from hMcl-1 (DELFIA)) does the source give for `COc1cc(C)c(C(C)C)cc1S(=O)(=O)NC(CC(=O)O)C(=O)N1C(C(=O)NC(Cc2c[nH]c3ccccc23)C(N)=O)CC2CCCCC21` [Compound 50, (3R)-4-((2S)-2-(((S)-1-Amino-3-(1H-indol-3-yl)-1-oxopropan-2-yl)carbamoyl)octahydro-1H-indol-1-yl)-3-((5-isopropyl-2-methoxy-4-methylphenyl)sulfonamido)-4-oxobutanoic Acid] here?
Answer: The IC50 was 7.5 µM.

Question: What about the “CSP2 (Table S4)” value ([3]; shift of the peak at -0.08 ppm, 1D-1H-aliphatic spectrum) of the same compound?
Answer: Its value is “+ (0.01 ppm < CSP < 0.05 ppm)”.

Question: What about the “CSP1 (Table S4)” value [3] of the same compound?
Answer: Its value is “+++ (0.1 ppm < CSP < 0.13 ppm)”.

Question: What about the “activity against hBfl-1 in DELFIA displacement assay” value [4] of the same compound?
Answer: Its value is “inactive”.

Question: What about the “ΔH, isothermal titration calorimetry” value ([2]; 25 °C) of the same compound?
Answer: The value was -10 kcal/mol.

Question: And the Kd [2, 6]?
Answer: The Kd was ~2 µM and 1.71 µM.

Question: What about the LE ([2]; from ITC Kd) of the same compound?
Answer: The LE was ~0.16.

Question: What about the Kd [2, 7] of the same compound?
Answer: The Kd was 1.71 ± 0.3 µM.

Question: And the koff ([5]; 20 μM 13Cε-Met hMcl-1, read-out: koff, estimated upper limit from Met 231 chemical shift differences (slow exchange))?
Answer: Its koff is < 519 s⁻¹.

Question: And the “dissociation constant corresponding to off-rate” value ([5]; assuming diffusion limited on rate of 10^9 M^–1 s^–1)?
Answer: Its value is “low micromolar”.

Question: How did the Kd [2, 6] turn out when `COc1ccc2[nH]cc(CC(NC(=O)C3CC4CCCCC4N3C(=O)C(CC(=O)O)NS(=O)(=O)c3cc(C(C)C)c(C)cc3OC)C(N)=O)c2c1` (stereo not shown) [Compound 59] was run?
Answer: The Kd was 4.62 ± 0.37 µM.

Question: And the Kd [2, 7]?
Answer: Its Kd is 4.62 ± 0.4 µM.

Question: `COc1cc(C)c(C(C)C)cc1S(=O)(=O)N[C@H](CCC(=O)O)C(=O)N[C@@H](CC1CCCCC1)C(N)=O` [Compound 15] was tested. Which “CSP1 (Table S3)” value [3] did it give?
Answer: Its value is “+ (0.01 ppm < CSP < 0.05 ppm)”.

Question: Which “CSP1 (Table S3)” value [3] does the source give for `COc1cc(C)c(C(C)C)cc1S(=O)(=O)N[C@@H](CCC(=O)O)C(=O)N[C@@H](CC1CCCCC1)C(N)=O` [Compound 14] here?
Answer: The value was “+ (0.01 ppm < CSP < 0.05 ppm)”.

Question: Which “CSP in the 1D-1H-aliphatic region of hMcl-1, comparison among P4 compounds” value ([3]; 20 μM hMcl-1, compound 100 μM) does the source give for `COc1cc(C)c(C(C)C)cc1S(=O)(=O)N[C@H](CC(=O)O)C(=O)N[C@@H](CC1CCCCC1)C(=O)N[C@H](Cc1c[nH]c2ccccc12)C(N)=O` [Compound 21, (R)-4-(((S)-1-(((R)-1-Amino-3-(1H-indol-3-yl)-1-oxopropan-2-yl)amino)-3-cyclohexyl-1-oxopropan-2-yl)amino)-3-((5-isopropyl-2-methoxy-4-methylphenyl)sulfonamido)-4-oxobutanoic Acid] here?
Answer: The value was “bigger CSP”.

Question: And the Kd ([3]; 1D 1H NMR, hMcl-1 20 μM, read-out: dissociation constant estimated by NMR titration)?
Answer: Its Kd is ~30 µM.

Question: What about the “CSP1 (Table S4)” value [3] of the same compound?
Answer: The value was “+++ (0.1 ppm < CSP < 0.13 ppm)”.

Question: Which “dissociation constant estimated by NMR titration” value ([3]; 1D 1H NMR, hMcl-1 20 μM) does the source give for `COc1cc(C)c(C(C)C)cc1S(=O)(=O)N[C@H](CC(=O)O)C(=O)N[C@@H](CC1CCCCC1)C(N)=O` [Compound 12, (R)-4-(((S)-1-Amino-3-cyclohexyl-1-oxopropan-2-yl)amino)-3-((5-isopropyl-2-methoxy-4-methylphenyl)sulfonamido)-4-oxobutanoic Acid] here?
Answer: The value was “triple-digit micromolar”.

Question: And the “CSP1 (Table S3)” value ([3]; listed as Compound (12))?
Answer: The value was “++ (0.05 ppm < CSP < 0.1 ppm)”.

Question: What about the Kd [2, 6] of the same compound?
Answer: Its Kd is ~450 µM.

Question: `COc1cc(C)c(C(C)C)cc1S(=O)(=O)N[C@H](CC(=O)O)C(=O)N[C@@H](CC1CCCCC1)C(N)=O` [Compound 13] was tested. Which “CSP1 (Table S3)” value ([3]; listed as Compound (13)) did it give?
Answer: Its value is “+ (0.01 ppm < CSP < 0.05 ppm)”.
